Holding throughout (test): NCI tumour cell line growth inhibition, 48 h
In test [1] the test system is K-562 leukemia.
Test [2] has as its system HCT-15 colon.
Test [3] has as its system SF-295 CNS.
Test [4] has as its system U251 CNS.
Test [5] concerns CAKI-1 renal.
For test [6], the system named is OVCAR-5 ovarian.
In test [7] the test system is SK-MEL-5 melanoma.
The test system of test [8] is NCI-H460 lung.
The subject of test [9] is CCRF-CEM leukemia.
Test [10] has as its system HOP-92 NSCLC.

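Step 1: Grow cells in 96-well plates. Step 2: Expose to compound for 48 hours at 5 concentrations. Step 3: Interpolate endpoints linearly; if unreached, use highest concentration. Here, GI50 denotes the concentration required for 50% inhibition of growth. TGI: concentration producing complete growth inhibition.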

As for `C[C@]12CCC(=O)C=C1CC[C@@H]1C2CC[C@]2(C)Nc3c(cnn3-c3ccccc3)CC12` (stereo not given in full), the TGI was > 100 µM in test [1]; > 100 µM in test [2]; > 10 µM in [3]; > 100 µM in test [4]; > 100 µM in test [5]; > 100 µM in test [6]. In addition, the TGI in [7], in test [8] and in test [9] was > 100 µM in each case.
As for `CC(C)CCCC(C)[C@H]1CCC2[C@@H]3CCC4Nc5nocc5C[C@]4(C)C3CC[C@@]21C` (stereo not given in full), the TGI in [1] worked out at 38.3 µM; in test [2] it was 30.3 µM; in [3], 34 µM; in test [4], 32 µM; in [5] it was 29 µM; in test [7], 29.2 µM. Moreover, the TGI in [8] was 47.1 µM; in test [9] it was 36.9 µM.
As to `O=C(Nc1cccc(-n2cc(-c3ccncc3)c(-c3cc(O)cc(Cl)c3)n2)c1)Nc1ccc(Cl)c(C(F)(F)F)c1`, the GI50 is 2.59 µM in test [1]; 2210 nM in test [2]; 2.05 µM in [3]; 1.72 µM in [4]; 2.68 µM in [5]; 3.79 µM in [6]. Further, the GI50 in [7] is 1690 nM; in test [8], 2590 nM; in test [9] it was 2730 nM. In addition, the TGI amounted to 11.9 µM in test [1]; 6.01 µM in test [2]; 4.95 µM in [3]; 3.65 µM in test [4]; 7.87 µM in test [5]; 13.1 µM in test [6]. For the same compound, the TGI came out at 3.23 µM in test [7], 7.37 µM in [8] and 8.93 µM in test [9].
`Cc1cc(NCCCCCCNc2cc(C)nc3cc(N(C)C)ccc23)c2ccc(N(C)C)cc2n1`: the TGI in test [1], in test [2], in test [3], in [4], in [5] and in [6] was > 100 µM each time. Besides, the TGI in test [7], in test [8] and in test [9] was > 100 µM each time.
As to `COc1cccc2c1ccc1nc3cccc(C(=O)N[C@H](C)CN(C)C)c3nc12`, the GI50 in test [1] was 0.0474 µM; in [2], 53 nM; in [3], 0.0586 µM; in test [4] it was 0.0441 µM; in test [6], 0.154 µM; in [7], 125 nM. Besides, the figures for the GI50 in [8] and in test [9] were 35.4 nM and 120 nM, respectively. For the same compound, the TGI was found to be 4.77 µM in test [1]; 10.8 µM in test [2]; 2.58 µM in test [3]; 8.28 µM in test [4]; 11.3 µM in test [6]; 0.342 µM in test [7]. Besides, the TGI in [8] amounted to 0.221 µM; in test [9], 7 µM.
For `COc1ccc(-c2nc(-c3ccccc3)c(-c3ccccc3)[nH]2)cc1OC1CCCC1`, the GI50 is 79.5 µM in test [1]; 13200 nM in [2]; 49.8 µM in [3]; > 100 µM in [4]; 88 µM in test [5]; > 100 µM in [6]. Also, the values for the GI50 in test [7], in test [8] and in test [9] were > 100000 nM, > 100000 nM and 51800 nM, respectively. The TGI in [1], in test [2], in test [3], in test [4], in test [5] and in [6] was > 100 µM in each case. The TGI in test [7], in test [8] and in test [9] was > 100 µM in each case.
Regarding `OCC(O)C(Cl)CCl` (stereo not given), the TGI in test [1], in [2], in [3], in [4], in [5] and in test [6] was > 100 µM in each case. In addition, the TGI in test [7], in test [8] and in test [9] was > 100 µM in each case.
Take `COc1ccc2c(c1)[n+]([O-])c(-c1ccc(OC)c(OC)c1)c(N)[n+]2[O-]`: the TGI in test [1] was > 100 µM; in [2], > 100 µM; in test [3], > 100 µM; in [4] it was > 100 µM; in test [5], 72.2 µM; in test [6], > 100 µM. For the same compound, the TGI is 83 µM in [7], > 100 µM in [8] and > 100 µM in [9].
Regarding `c1ccc(C(c2ccccc2)c2cccnc2)cc1`, the TGI in [1], in [2], in test [3], in [4], in [5] and in test [6] was > 100 µM each time. Moreover, the TGI in test [7], in test [8] and in test [9] was > 100 µM in each case.
As to `NC(=O)c1ccccc1Nc1ccc2nnc(-c3ccncc3)n2n1`, the GI50 was 11.1 µM in test [1]; 5480 nM in test [2]; 7.4 µM in [4]; 2.45 µM in test [5]; 15.4 µM in test [6]; 4740 nM in test [7]. In addition, the GI50 was 4440 nM in test [8] and 3120 nM in test [9]. Also, the TGI in test [1] was 60.4 µM; in test [2], 22.4 µM; in [4], 20.6 µM; in test [5] it was 6.42 µM; in [6], 29.8 µM; in [7], 16.9 µM. The TGI was determined as 16.9 µM in test [8] and 17.4 µM in test [9].
In the case of `CC1(N)CCN(c2cccnc2NC(=O)c2nc(-c3ncccc3C(F)(F)F)cnc2N)CC1`, the GI50 was 22.3 µM in test [1]; 25100 nM in test [2]; 99.3 µM in test [3]; 21.8 µM in test [4]; 17.8 µM in [5]; 20 µM in test [6]. For the same compound, the GI50 in test [7] was 18300 nM; in test [8] it was 41100 nM; in test [9], 26900 nM. For the same compound, the TGI in test [1], in [2], in test [3], in [4], in test [5] and in [6] was > 100 µM in each case. The TGI is 33 µM in [7], > 100 µM in [8] and > 100 µM in [9].
In the case of `Clc1ccc(N=Nc2nc3ccccc3nc2N=Nc2ccc(Cl)cc2Cl)c(Cl)c1`, the TGI in test [1] is > 100 µM; in [2] it was > 100 µM; in [3] it was > 100 µM; in test [4] it was > 100 µM; in test [10], > 100000 nM; in [8], > 100 µM.
`O=C1Nc2nc3ccccc3n2N=C2CCCC12` (stereo not given): the TGI in [1], in test [2], in [3], in [4], in test [5] and in test [6] was > 100 µM throughout. Further, the TGI in test [7], in test [8] and in [9] was > 100 µM each time.
On to `COCC(O)Cn1ccnc1[N+](=O)[O-]` (stereo not given), for which the TGI in test [1], in test [2], in [3], in test [4], in [5] and in test [6] was > 100 µM throughout. In addition, the TGI in [8] and in test [9] was > 100 µM each time.
On to `CCC(C)[C@H]1O[C@]2(C=C[C@@H]1C)C[C@@H]1C[C@@H](C/C=C(\C)[C@@H](OC3C[C@H](OC)C(O[C@H]4C[C@H](OC)[C@@H](O)[C@H](C)O4)[C@H](C)O3)[C@@H](C)/C=C/C=C3\CO[C@@H]4[C@H](O)C(C)=C[C@@H](C(=O)O1)[C@]34O)O2` (stereo not given in full), for which the GI50 is 1720 nM in [2]; 1.42 µM in test [4]; 650 nM in test [10]; 2.06 µM in test [6]; 991 nM in [7]. Further, the TGI in test [2] was 6.79 µM; in test [4], 6.47 µM; in test [10], 1410 nM; in [6], 7.86 µM; in test [7], 2.28 µM.
Regarding `CCC1CN2C(=N1)c1ccccc1-c1cc(Cl)ccc12` (stereo not given), the GI50 in [1] was 2.39 µM; in [2], 2860 nM; in test [3], 3.91 µM; in [4] it was 3.18 µM; in test [5], 4.32 µM; in test [6], 4.48 µM. Also, the results for the GI50 in [7], in test [8] and in test [9] were 2030 nM, 2150 nM and 2020 nM, respectively. The TGI worked out at 7.1 µM in test [1]; 11.5 µM in test [2]; 31.3 µM in test [3]; 11.6 µM in [4]; 46.7 µM in [5]; 29.6 µM in test [6]. In addition, the TGI is 4.69 µM in [7], 10.5 µM in test [8] and 4.79 µM in [9].
Regarding `OCC1C(/C=C/c2ccoc2)ON2CCCC12` (stereo not given), the TGI in [3], in [4], in test [5], in test [6] and in test [8] was > 100 µM each time.

Source of the values: PubChem BioAssay (NCI).
